For assay [1], the target named is T1, Human Factor XIIa (hFXIIa) (Homo sapiens, UniProt P00748).
T1 construct: purchased Enzyme Research Laboratories
T1 sequence (P00748 373-615 limits assumed): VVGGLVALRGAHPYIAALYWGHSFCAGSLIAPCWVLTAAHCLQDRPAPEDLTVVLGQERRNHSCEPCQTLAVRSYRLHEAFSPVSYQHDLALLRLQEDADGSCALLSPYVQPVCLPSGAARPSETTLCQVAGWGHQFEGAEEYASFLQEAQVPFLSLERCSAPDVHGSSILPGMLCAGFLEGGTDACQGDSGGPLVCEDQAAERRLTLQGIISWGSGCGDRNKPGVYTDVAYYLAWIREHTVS
T1 sequence (P00748 20-372 partner limits assumed): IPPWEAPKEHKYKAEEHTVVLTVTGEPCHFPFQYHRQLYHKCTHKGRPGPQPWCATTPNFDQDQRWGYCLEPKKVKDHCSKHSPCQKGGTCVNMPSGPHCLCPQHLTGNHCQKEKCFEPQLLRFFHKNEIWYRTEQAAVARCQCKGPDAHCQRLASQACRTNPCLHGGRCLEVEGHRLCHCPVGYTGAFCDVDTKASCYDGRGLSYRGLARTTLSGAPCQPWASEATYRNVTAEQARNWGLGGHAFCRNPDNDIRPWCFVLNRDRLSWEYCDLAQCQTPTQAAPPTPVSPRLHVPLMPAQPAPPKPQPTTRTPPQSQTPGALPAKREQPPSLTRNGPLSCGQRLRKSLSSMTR
The assay can be described thus: Determination of Human Factor XIIa (hFXIIa) inhibition, fluorogenic substrate IC50 assay. The class given is biochemical. The conditions noted are these: fluorogenic substrate H-DPro-Phe-Arg-AFC at Km, 25° C., read-out: Human FXIIa IC50. As to the method: Determination of Human Factor XIIa (hFXIIa) inhibition
The Km for the cleavage of the substrate by hFXIIa was determined by standard transformation of the Michaelis-Menten equation, with subsequent inhibition assays performed at substrate Km concentration.

A further assay concerns the target FXa (Homo sapiens, UniProt P00742). The experiment in a line: Related protease inhibition: FXa, fluorogenic substrate. The settings on record: fluorogenic substrate at Km, 25° C.; H1-H3 = % activity at 40 μM. The class given is biochemical. As to the method: Human serine protease enzyme Plasma Kallikrein, KLK1, FXa, Plasmin, Thrombin and Trypsin were assayed for enzymatic activity using an appropriate fluorogenic substrate at Km concentration, FXIa at fixed substrate concentration of 100 μM and various concentrations of the test compound.

Each structure is given as a SMILES string.

Sequence of FXa (P00742 235-488 limits assumed): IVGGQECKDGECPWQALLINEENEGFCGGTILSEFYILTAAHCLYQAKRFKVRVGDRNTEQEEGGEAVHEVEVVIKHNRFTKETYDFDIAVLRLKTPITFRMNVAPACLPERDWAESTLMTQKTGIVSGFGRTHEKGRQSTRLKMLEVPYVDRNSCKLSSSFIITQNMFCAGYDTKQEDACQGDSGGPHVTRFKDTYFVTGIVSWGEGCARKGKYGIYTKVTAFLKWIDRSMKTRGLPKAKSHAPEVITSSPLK
Sequence of FXa (P00742 41-179 partner limits assumed): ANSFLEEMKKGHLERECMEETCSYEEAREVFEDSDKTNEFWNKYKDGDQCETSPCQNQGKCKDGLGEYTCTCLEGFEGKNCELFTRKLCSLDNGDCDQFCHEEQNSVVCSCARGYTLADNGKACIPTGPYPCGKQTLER

The term IC50 denotes the concentration needed to halve the response being measured. For the compound `Cc1cncc(CNC(=O)c2nn(-c3cccc(Cl)c3)c3c2CCN(c2ccc4c(c2)CN(CCO)CC4)C3=O)c1` [Example 1126, 1-(3-chlorophenyl)-6-(2-(2-hydroxyethyl)-1,2,3,4-tetrahydroisoquinolin-7-yl)-N-((5-methylpyridin-3-yl)methyl)-7-oxo-4,5,6,7-tetrahydro-1H-pyrazolo[3,4-c]pyridine-3-carboxamide], the IC50 in assay [1] fell in the range of 0.01 to 0.1 µM; at FXa, 10 to 40 µM.
With `CCNC(=O)c1nn(-c2cccc(Cl)c2)c2c1CCN(c1ccc3c(c1)C(=O)N(C)CC(=O)N3C)C2=O` [Example 1375, 1-(3-chlorophenyl)-6-(1,4-dimethyl-2,5-dioxo-2,3,4,5-tetrahydro-1H-benzo[e][1,4]diazepin-7-yl)-N-ethyl-7-oxo-4,5,6,7-tetrahydro-1H-pyrazolo[3,4-c]pyridine-3-carboxamide], the results for the IC50 (in assay [1]; on FXa) were 3 to 10 µM and over 40 µM, respectively.
For `Cc1ncccc1CNC(=O)c1nn(-c2cccc(Cl)c2)c2c1CCN(c1ccc3c(c1)C(=O)N(C)CC3)C2=O` [Example 1309, 1-(3-chlorophenyl)-6-(2-methyl-1-oxo-1,2,3,4-tetrahydroisoquinolin-7-yl)-N-((2-methylpyridin-3-yl)methyl)-7-oxo-4,5,6,7-tetrahydro-1H-pyrazolo[3,4-c]pyridine-3-carboxamide] the same measures were 0.1 to 0.3 µM and over 40 µM.
For `CCOC(=O)c1nn(-c2cccc(Cl)c2)c2c1CCN(c1ccc3c(c1)CN(C)CC3)C2=O` [Example 1013, ethyl 1-(3-chlorophenyl)-6-(2-methyl-1,2,3,4-tetrahydroisoquinolin-7-yl)-7-oxo-4,5,6,7-tetrahydro-1H-pyrazolo[3,4-c]pyridine-3-carboxylate] the same measures were 0.1 to 0.3 µM and 0.3 to 1 µM.
For `CCOC(=O)c1nn(-c2cccc(Cl)c2)c2c1CCN(c1cccc(CN3CCCCC3)c1)C2=O` [Example 1007, ethyl 1-(3-chlorophenyl)-7-oxo-6-(3-(piperidin-1-ylmethyl)phenyl)-4,5,6,7-tetrahydro-1H-pyrazolo[3,4-c]pyridine-3-carboxylate] the same measures were 0.1 to 0.3 µM and 10 to 40 µM.
For the compound `CC(C)N1CCc2ccc(N3CCc4c(C(=O)NCc5ccccc5)nn(-c5cccc(Cl)c5)c4C3=O)cc2C1` [Example 1022, N-benzyl-1-(3-chlorophenyl)-6-(2-isopropyl-1,2,3,4-tetrahydroisoquinolin-7-yl)-7-oxo-4,5,6,7-tetrahydro-1H-pyrazolo[3,4-c]pyridine-3-carboxamide], the IC50 in assay [1] lay within 0.01 to 0.1 µM; against FXa, 3 to 10 µM.
For `CC(=O)NCc1nn(-c2cccc(Cl)c2)c2c1CCN(c1ccc3c(c1)C(=O)N(C)CC3)C2=O` [Example 1385, N-((1-(3-chlorophenyl)-6-(2-methyl-1-oxo-1,2,3,4-tetrahydroisoquinolin-7-yl)-7-oxo-4,5,6,7-tetrahydro-1H-pyrazolo[3,4-c]pyridin-3-yl)methyl)acetamide] the same measures were 1 to 3 µM and 3 to 10 µM.
In the same order, the values of `CCNC(=O)c1nn(-c2cccc(Cl)c2)c2c1CCN(c1ccc(OC)c(N3C(=O)CC4CC43)c1)C2=O` (stereo not shown) [Example 1402, 1-(3-chlorophenyl)-N-ethyl-6-(4-methoxy-3-(3-oxo-2-azabicyclo[3.1.0]hexan-2-yl)phenyl)-7-oxo-4,5,6,7-tetrahydro-1H-pyrazolo[3,4-c]pyridine-3-carboxamide] are 3 to 10 µM and over 40 µM.
Turning to `Cc1cc(CNC(=O)c2nn(-c3cccc(Cl)c3)c3c2CCN(c2ccc4c(c2)C(=O)N(C)CC4)C3=O)nn1C` [Example 1199, 1-(3-chlorophenyl)-N-((1,5-dimethyl-1H-pyrazol-3-yl)methyl)-6-(2-methyl-1-oxo-1,2,3,4-tetrahydroisoquinolin-7-yl)-7-oxo-4,5,6,7-tetrahydro-1H-pyrazolo[3,4-c]pyridine-3-carboxamide], the IC50 is 0.1 to 0.3 µM in assay [1] and 10 to 40 µM against FXa.
In the same order, the values of `O=C(OCc1ccccc1)c1nn(-c2cccc(Cl)c2)c2c1CCN(c1cccc(CN3CCCCC3)c1)C2=O` [Example 1006, benzyl 1-(3-chlorophenyl)-7-oxo-6-(3-(piperidin-1-ylmethyl)phenyl)-4,5,6,7-tetrahydro-1H-pyrazolo[3,4-c]pyridine-3-carboxylate] are 0.3 to 1 µM and 10 to 40 µM.
For `CCNC(=O)c1nn(-c2cccc(Cl)c2)c2c1CCN(c1ccc(OC)c(N3CCCC3=O)c1)C2=O` [Example 1401, 1-(3-chlorophenyl)-N-ethyl-6-(4-methoxy-3-(2-oxopyrrolidin-1-yl)phenyl)-7-oxo-4,5,6,7-tetrahydro-1H-pyrazolo[3,4-c]pyridine-3-carboxamide] the same measures were 1 to 3 µM and over 40 µM.
As to `C[C@@H](NC(=O)c1nn(-c2cccc(Cl)c2)c2c1CCN(c1ccc3c(c1)C(=O)N(C)CC3)C2=O)C(=O)O` [Example 1387, (1-(3-chlorophenyl)-6-(2-methyl-1-oxo-1,2,3,4-tetrahydroisoquinolin-7-yl)-7-oxo-4,5,6,7-tetrahydro-1H-pyrazolo[3,4-c]pyridine-3-carbonyl)-D-alanine], the results for the IC50 (in assay [1]; against FXa) were 1 to 3 µM and 10 to 40 µM, respectively.
For `Cc1ncc(CNC(=O)c2nn(-c3cccc(Cl)c3)c3c2CCN(c2ccc4c(c2)C(=O)N(C)CC4)C3=O)s1` [Example 1193, 1-(3-chlorophenyl)-6-(2-methyl-1-oxo-1,2,3,4-tetrahydroisoquinolin-7-yl)-N-((2-methylthiazol-5-yl)methyl)-7-oxo-4,5,6,7-tetrahydro-1H-pyrazolo[3,4-c]pyridine-3-carboxamide] the same measures were 0.1 to 0.3 µM and over 40 µM.
For `CN1CCc2ccc(N3CCc4c(C(=O)NC5(C(=O)O)CC5)nn(-c5cccc(Cl)c5)c4C3=O)cc2C1=O` [Example 1361, 1-(1-(3-chlorophenyl)-6-(2-methyl-1-oxo-1,2,3,4-tetrahydroisoquinolin-7-yl)-7-oxo-4,5,6,7-tetrahydro-1H-pyrazolo[3,4-c]pyridine-3-carboxamido)cyclopropane-1-carboxylic acid] the same measures were 1 to 3 µM and 10 to 40 µM.
In the same order, the values of `CCN1CCc2ccc(N3CCc4c(C(=O)NCc5nn(C)cc5C)nn(-c5cccc(Cl)c5)c4C3=O)cc2C1=O` [Example 1224, 1-(3-chlorophenyl)-N-((1,4-dimethyl-1H-pyrazol-3-yl)methyl)-6-(2-ethyl-1-oxo-1,2,3,4-tetrahydroisoquinolin-7-yl)-7-oxo-4,5,6,7-tetrahydro-1H-pyrazolo[3,4-c]pyridine-3-carboxamide] are 0.1 to 0.3 µM and over 40 µM.
As for `CCN1CCc2ccc(N3CCc4c(C(=O)NC5COCC5(C)C)nn(-c5cccc(Cl)c5)c4C3=O)cc2C1` (stereo not shown) [Example 1092, 1-(3-chlorophenyl)-N-(4,4-dimethyltetrahydrofuran-3-yl)-6-(2-ethyl-1,2,3,4-tetrahydroisoquinolin-7-yl)-7-oxo-4,5,6,7-tetrahydro-1H-pyrazolo[3,4-c]pyridine-3-carboxamide], the IC50 is 0.1 to 0.3 µM in assay [1] and over 40 µM on FXa.
In the same order, the values of `CN1CCc2ccc(N3CCc4c(C(=O)NCC5(CO)COC5)nn(-c5cccc(Cl)c5)c4C3=O)cc2C1=O` [Example 1252, 1-(3-chlorophenyl)-N-((3-(hydroxymethyl)oxetan-3-yl)methyl)-6-(2-methyl-1-oxo-1,2,3,4-tetrahydroisoquinolin-7-yl)-7-oxo-4,5,6,7-tetrahydro-1H-pyrazolo[3,4-c]pyridine-3-carboxamide] are 0.3 to 1 µM and over 40 µM.
For `O=C(NC1CCCCC1)c1nn(-c2cccc(Cl)c2)c2c1CCN(c1cccc(CN3CCCCC3)c1)C2=O` [Example 1010, 1-(3-chlorophenyl)-N-cyclohexyl-7-oxo-6-(3-(piperidin-1-ylmethyl)phenyl)-4,5,6,7-tetrahydro-1H-pyrazolo[3,4-c]pyridine-3-carboxamide] the same measures were 0.3 to 1 µM and over 100 µM.
Turning to `CCN1CCc2ccc(N3CCc4c(C(=O)NCC5CC5)nn(-c5cccc(Cl)c5)c4C3=O)cc2C1` [Example 1031, 1-(3-chlorophenyl)-N-(cyclopropylmethyl)-6-(2-ethyl-1,2,3,4-tetrahydroisoquinolin-7-yl)-7-oxo-4,5,6,7-tetrahydro-1H-pyrazolo[3,4-c]pyridine-3-carboxamide], the results for the IC50 (in assay [1]; against FXa) were 0.1 to 0.3 µM and 10 to 40 µM, respectively.
In the same order, the values of `Cc1ccncc1CNC(=O)c1nn(-c2cccc(Cl)c2)c2c1CCN(c1cccc(CN3CCCCC3)c1)C2=O` [Example 1177, 1-(3-chlorophenyl)-N-((4-methylpyridin-3-yl)methyl)-7-oxo-6-(3-(piperidin-1-ylmethyl)phenyl)-4,5,6,7-tetrahydro-1H-pyrazolo[3,4-c]pyridine-3-carboxamide] are 0.01 to 0.1 µM and over 40 µM.

Source of the values: patent US20260132132A1, “3A,4,5,6-TETRAHYDRO-1 H-PYRAZOLO[3,4-C]PYRIDIN-7(7AH)-ONE DERIVATIVES AS FACTOR XIIA INHIBITORS” (KALVISTA PHARMACEUTICALS LIMITED, priority 2022, published 2026).
